From EP0325936A2, “Aminoguanidine derivatives and inhibitory agents on maillard reaction containing them as active ingredients” (ONO PHARMACEUTICAL CO., LTD., priority 1988, dated 1989)

System: Maillard reaction
Experiment: Inhibitory effect on Maillard reaction in vitro (BSA + glucose incubation, fluorescence)
Assay type: biochemical
Conditions: 6mM test compound; 100 mg/ml bovine serum albumin (BSA), 200 mM glucose, 0.5 M phosphatic buffer solution (pH 7.38), incubated for a week at 37°C; fluorescence excitation 360nm, emission 450 nm
Procedure: An inhibitory activity on Maillard reaction of the compounds of the present invention was confirmed by the screening system mentioned below.
In order to evaluate the inhibitory effect on Maillard reaction in vitro, of the compounds in the present invention, the measurement was carried out under conditions described below.
100 mg/ml bovine serum albumin (BSA), 200 mM glucose and 6mM test compound were dissolved in 0.5 M phosphatic buffer solution (pH 7.38), and the mixture was incubated for a week at 37°C.
After incubation, the incubated medium was diluted 100 times with the same phosphatic buffer solution, and the fluorescence spectrum was measured at the excitation maximum of 360nm and the emission maximum of 450 nm.
Inhibition percentage of the test compounds was calculated by the following equation: [formula] ΔI₁ : fluorescence of test compounds ΔI₂ : fluorescence of (test compounds + glucose), ΔI₃ : fluorescence of (test compounds + BSA), ΔI₄ : fluorescence of (test compounds + BSA + glucose), ΔI : fluorescence of (BSA + glucose)

| Structure (SMILES) | Inhibitory effect (%) (6mM) |
| --- | --- |
| N=C(N)NNc1ccc(Cl)cc1.O=S(=O)(O)O [1(b), 1-(4-chloroanilino) guanidine sulfate] | 100 |
| N=C(N)NNc1ccc(F)cc1.O=S(=O)(O)O [1(c), 1-(4-fluoroanilino) guanidine sulfate] | 100 |
| COc1ccc(NNC(=N)N)cc1.O=S(=O)(O)O [1(d), 1-(4-methoxyanilino) guanidine sulfate] | 100 |
| Cc1ccc(NNC(=N)N)cc1.O=S(=O)(O)O [1(h), 1-(4-methylanilino) guanidine sulfate] | 83 |
| N=C(N)NNc1cccc([N+](=O)[O-])c1.O=S(=O)(O)O [1(j), 1-(3-nitroanilino) guanidine sulfate] | 94 |
| N=C(N)NNc1ccccc1Cl.O=S(=O)(O)O [Example 1(a), 1-(2-chloroanilino) guanidine sulfate] | 79 |
| N=C(N)NNc1ccccc1.O=S(=O)(O)O [Example 1, 1-anilinoguanidine sulfate] | 79 |
